According to patent publication US20120142606A1, “TUMOR TARGETING PEPTIDES, THERAPEUTIC AND DIAGNOSTIC COMPOSITIONS COMPRESSING THE PEPTIDES” (priority 2009, published 2012):

How the values were obtained:
[1] = system: MCF7 cells; experiment: Peptide binding to MCF7 breast cancer cells by flow cytometry; conditions: 0.1-100 μg/ml peptide, 4° C., 20 minutes
Experimental: (§1) To assess peptide binding, MCF7 cells were incubated with increasing doses (0.1-100 μg/ml) of the BK-FITC peptide at 4° C. for 20 minutes. Cells were subsequently washed 4 times with PBS and analyzed by flow cytometry. […] Subsequently, we evaluated the specificity of the BK-peptide for breast cancer cells by incubating MCF7 cells in parallel with human peripheral blood mononuclear cells under the same conditions as mentioned above.
(§2) FIG. 2. […] MCF7 cells (left panel) and human peripheral blood mononuclear cells (PBMC) (right panel) were incubated with increasing doses of peptide for 20 min at 4° C. The cells were subsequently analyzed by flow cytometry for mean fluorescence intensity of FITC, depicted on the y-axis.

[2] = system: human peripheral blood mononuclear cells; experiment: Peptide binding to peripheral blood mononuclear cells by flow cytometry (specificity); conditions: 0.1-100 μg/ml peptide, 4° C., 20 minutes
Experimental: as §1, §2

[3] = system: MCF7 cells; experiment: Killing of MCF7 cells, propidium iodide staining and flow cytometry; type: cell-based; conditions: 50 μg/ml peptide, 24 h
Experimental: (§3) Next, we examined to what extent the peptide specifically kills MCF7 cells. White blood cells (WBCs) were used as a control for normal non-cancerous cells. WBCs were isolated from a healthy donor by ficoll hypaque gradient centrifugation. Red blood cells were removed using a red blood cell lysis buffer and the remaining WBCs were used for the experiment. MCF7 cells and WBCs were incubated with 50 μg/ml peptide or medium only for 24 h. Cells were collected, stained with propidium iodide (PI) and analyzed for apoptosis by flow cytometry (FIG. 3). The data was analyzed by gating on life PI negative cells which is depicted as % viable cells on the y-axis.

[4] = system: White blood cells (WBCs); experiment: Killing of white blood cells (normal cell control), propidium iodide staining and flow cytometry; type: cell-based; conditions: 50 μg/ml peptide, 24 h, WBCs from a healthy donor
Experimental: as §3

In the case of “KLAKLAKKLAKLAK-GG-LTVXPWY (SEQ ID NO:9) conjugated to fluoresceinisothiocyanate (FITC) [BK1-FITC, BK1-peptide conjugated to fluoresceinisothiocyanate]”, the “binding to MCF7 cells, mean fluorescence intensity (MFI) of FITC” value [1] is reported as “dose dependent increase in mean fluorescence intensity”.
In the case of KLAKLAKKLAKLAK-GG-LTVXPWY [BK1-peptide], the “binding to MCF7 cells, mean fluorescence intensity (MFI) of FITC” value [1] is reported as “binds to breast cancer cells”, the “binding to peripheral blood mononuclear cells, mean fluorescence intensity of FITC” value [2] is reported as “did not observe binding” and the “killing of MCF7 cells (% viable cells, PI negative)” value [3] is reported as “kills MCF7”. For the same substance, the “killing of white blood cells (% viable cells, PI negative)” value [4] was “but not white blood cells”.
